Measured values published in paper PMC8752738, “A propolis-derived small molecule ameliorates metabolic syndrome in obese mice by targeting the CREB/CRTC2 transcriptional complex” (Nature Communications, 2022).
Values joined by “and” are separate entries in the source; they are usually repeats but may differ in a detail not shown here. Equal values may be shown once.

Test system: tissue mRNA levels
Test: Quantitative PCR of tissue gene expression in treated mice
Format: in vivo, mouse
Design: key to mRNA levels Scap / mRNA levels Insig1 / mRNA levels Ldlr / mRNA levels Mttp / mRNA levels Atgl / mRNA levels Tnfaip2 / mRNA levels Rxra / mRNA levels Srebf1 / mRNA levels Ucp2: mRNA level normalized to ribosomal L32 mRNA (internal control)
Details: for Lxra mRNA level: Figure 7g right, APC-20, single animals
Experimental: Total RNA from cells and tissues was extracted by Trizol (Invitrogen) and reverse-transcribed into cDNA using the prime script RT reagent kit with gDNA eraser (Takara). The mRNA levels were determined using the SYBR-green PCR kit (Takara) with ABIPRISM 7900HT Sequence detector (ABI) according to the manufacturer’s protocol. The quantitative qPCR primers used in this work are listed in Supplementary Table 1. Ribosomal L32 mRNA levels were used as an internal control.

[1] = Figure 6f, CRTC2KO mice, oral APC, individual mice
[2] = Figure 6f, WT mice, oral APC, group mean, N 6
[3] = Figure 6f, WT mice, oral APC, individual mice
[4] = Figure 8b, group mean, VEH mean 1.017
[5] = Figure 8b, individual mice, relative to CT
[6] = Figure 6d, white fat (WF) tissue of DIO mice, individual animals

Which results are given for `CC(C)=CCc1cc(C=CC(=O)O)cc(CC=C(C)C)c1O` [APC, 3,5-diprenyl-4-hydroxycinnamic acid]?
mRNA of Srebf-1c [1]: 0.7027 and 0.8687 and 0.636 and 0.7129 and 0.563 and 0.649; mRNA of Srebf-2 [1]: 0.9632 and 0.7439 and 0.6331 and 0.8903 and 0.6443 and 0.8216; mRNA of Srebf-1c, Mean Diff. APC - VEH (Figure 6f, WT mice, oral APC): -0.3789; mRNA of Srebf-2, Mean Diff. APC - VEH (Figure 6f, WT mice, oral APC): -0.3018; mRNA of Srebf-1c, Mean 1 (APC) [2]: 0.629; mRNA of Srebf-2, Mean 1 (APC) [2]: 0.7556; mRNA of Srebf-1c [3]: 0.563 and 0.9627 and 0.5968 and 0.3599 and 0.5266 and 0.7651; mRNA of Srebf-2 [3]: 0.6655 and 0.7786 and 0.6178 and 0.7571 and 0.8561 and 0.8585; Lxra mRNA level (Crtc2KO mice): 1.153 and 0.7926 and 0.8176 and 0.4111 and 0.7938; Lxra mRNA level (WT mice): 0.6135 and 0.274 and 0.3613 and 0.5157 and 0.4764; mRNA levels G6Pase, Mean of APC (Figure 8b, group mean, VEH mean 1.004): 0.5682; mRNA levels Pck1, Mean of APC [4]: 0.584; mRNA levels Pgc-1a, Mean of APC [4]: 0.499; mRNA levels G6Pase [5]: 0.4956 and 0.4542 and 0.8275 and 0.9159 and 0.3526 and 0.3635; mRNA levels Pck1 [5]: 0.4515 and 0.4432 and 0.8122 and 0.7784 and 0.5234 and 0.4955; mRNA levels Pgc-1a [5]: 0.6618 and 0.6014 and 0.6454 and 0.5396 and 0.2614 and 0.2843; mRNA levels ApoB, Mean of APC (Figure 6d, white fat (WF) tissue of DIO mice, group mean, Mean of VEH 0.9173): 0.3598; mRNA levels Srebf-1c, Mean of APC (Figure 6d, white fat (WF) tissue of DIO mice, group mean, Mean of VEH 0.9567): 0.3721; mRNA levels Acsl1, Mean of APC (Figure 6d, white fat (WF) tissue of DIO mice, group mean, Mean of VEH 0.9649): 0.4379; mRNA levels Lxra, Mean of APC (Figure 6d, white fat (WF) tissue of DIO mice, group mean, Mean of VEH 0.976): 0.6757; mRNA levels Cebpa, Mean of APC (Figure 6d, white fat (WF) tissue of DIO mice, group mean, Mean of VEH 0.9829): 1.129; mRNA levels Creb, Mean of APC (Figure 6d, white fat (WF) tissue of DIO mice, group mean, Mean of VEH 0.9868): 1.007; mRNA levels Cpt1, Mean of APC (Figure 6d, white fat (WF) tissue of DIO mice, group mean, Mean of VEH 0.9898): 1.536; mRNA levels Pparγ, Mean of APC (Figure 6d, white fat (WF) tissue of DIO mice, group mean, Mean of VEH 0.9976): 0.9616; mRNA levels Tnfaip2, Mean of APC (Figure 6d, white fat (WF) tissue of DIO mice, group mean, Mean of VEH 1.005): 0.9923; mRNA levels Pgc-1a, Mean of APC (Figure 6d, white fat (WF) tissue of DIO mice, group mean, Mean of VEH 1.009): 0.704; mRNA levels Srebf-2, Mean of APC (Figure 6d, white fat (WF) tissue of DIO mice, group mean, Mean of VEH 1.017): 0.6488; mRNA levels Acc, Mean of APC (Figure 6d, white fat (WF) tissue of DIO mice, group mean, Mean of VEH 1.018): 0.5342; mRNA levels Scd1, Mean of APC (Figure 6d, white fat (WF) tissue of DIO mice, group mean, Mean of VEH 1.022): 0.5423; mRNA levels Fasn, Mean of APC (Figure 6d, white fat (WF) tissue of DIO mice, group mean, Mean of VEH 1.036): 0.5535; mRNA levels Mgll, Mean of APC (Figure 6d, white fat (WF) tissue of DIO mice, group mean, Mean of VEH 1.041): 0.6295; mRNA levels Retn, Mean of APC (Figure 6d, white fat (WF) tissue of DIO mice, group mean, Mean of VEH 1.044): 0.3139; mRNA levels Glut4, Mean of APC (Figure 6d, white fat (WF) tissue of DIO mice, group mean, Mean of VEH 1.054): 0.2982; mRNA levels Atgl, Mean of APC (Figure 6d, white fat (WF) tissue of DIO mice, group mean, Mean of VEH 1.057): 1.332; mRNA levels Hsl, Mean of APC (Figure 6d, white fat (WF) tissue of DIO mice, group mean, Mean of VEH 1.069): 1.68; mRNA levels Lpl, Mean of APC (Figure 6d, white fat (WF) tissue of DIO mice, group mean, Mean of VEH 1.114): 0.6106; mRNA levels Pgc-1b, Mean of APC (Figure 6d, white fat (WF) tissue of DIO mice, group mean, Mean of VEH 1.126): 0.666; mRNA levels Acc [6]: 0.5239 and 0.3917 and 0.6963 and 0.6783 and 0.5952 and 0.3196; mRNA levels Acsl1 [6]: 0.4459 and 0.1537 and 0.5539 and 0.2927 and 0.6116 and 0.5696; mRNA levels ApoB [6]: 0.3337 and 0.2599 and 0.6345 and 0.1702 and 0.408 and 0.3527; mRNA levels Atgl [6]: 1.322 and 1.233 and 1.718 and 1.2249 and 1.301 and 1.192; mRNA levels Cebpa [6]: 1.279 and 0.9809 and 1.111 and 1.353 and 1.154 and 0.8979; mRNA levels Cpt1 [6]: 1.627 and 1.184 and 1.402 and 2.24 and 1.4196 and 1.345; mRNA levels Creb [6]: 1.411 and 1.393 and 1.026 and 0.3555 and 0.9743 and 0.8802; mRNA levels Fasn [6]: 0.5104 and 0.4062 and 0.9888 and 0.3127 and 0.6571 and 0.4456; mRNA levels Glut4 [6]: 0.4697 and 0.1331 and 0.1991 and 0.1942 and 0.3683 and 0.4245; mRNA levels Hsl [6]: 2.303 and 1.694 and 1.5898 and 1.21 and 1.869 and 1.4146; mRNA levels Lpl [6]: 0.6557 and 0.743 and 0.6544 and 0.3781 and 0.733 and 0.4994; mRNA levels Lxra [6]: 0.7883 and 0.7167 and 0.4804 and 0.6732 and 0.7502 and 0.6457; mRNA levels Mgll [6]: 0.5524 and 0.27 and 0.8642 and 0.6156 and 0.9323 and 0.5423; mRNA levels Pgc-1a [6]: 0.5315 and 0.7402 and 0.6723 and 0.7798 and 0.8847 and 0.6158; mRNA levels Pgc-1b [6]: 0.683 and 0.7869 and 0.6257 and 0.4165 and 0.7943 and 0.6894; mRNA levels Ppargamma [6]: 1.1637 and 0.8189 and 1.303 and 0.8539 and 0.722 and 0.9079
